Reference: patent US10208074B2, “Pyrazole compounds and method for making and using the compounds” (Rigel Pharmaceuticals, Inc., priority 2015, dated 2019)
Counter-ions that a name gives are not always drawn. Like-named read-outs stand apart in the source and are kept apart here. Values belong to the compound of their own block, whether it stands above or below them.

Tests used:
IL-23p19 = experiment: LPS induced IL23p19 in THP-1 cells (with IFNγ primed) assay; assay type: cell-based, Human
From the text: LPS Induced IL23p19 in THP-1 Cells (with IFNγ Primed) Assay
THP-1 Cells (ATCC, Cat#TIB-202), Dimethyl Sulfoxide (DMSO) (Sigma-Aldrich, Cat#D2650), RPMI 1640 (Cellgro, Cat#10-040-CM), Fetal Bovine Serum (Sigma, Cat#F4135), Albumin From Bovine Serum (BSA) (Sigma-Aldrich, Cat#A7906), LPS (Serotype K-235, Sigma, Product Number L 2143), IFNγ (Peprotech, Cat#300-02) Capture antibody: Human IL-23p19 ELISA (e-Bioscience, Cat. #14-7238-85), Detection antibody: Primary Mouse Biotinylated anti-human IL-12(p40/p70) (e-Bioscience, Cat. #13-7129-85), Secondary HRP-conjugated Streptavidin (R&D Systems, Cat#DY998), 1×PBST Washing Buffer (PBS-Tween tablet) (VWR International, Cat#80058-558), ELISA Blocking Buffer (PBS with 1% BSA), ELISA Dilution Buffer (PBS with 1% BSA), 384 Well Flat-Bottom, MaxiSorp Black Immuno Plates (Thermo Scientific, Cat#12-565-346), 384 Well Flat-Bottom, White Tissue Culture Plates (Thermo Scientific, Cat#12-565-343), Super Signal ELISA Pico Chemiluminescent Substrate (Thermo Scientific, Cat#37070), Cell Titer Glo reagent (Promega, Cat#G7573), Positive control, IKK2VI inhibitor (Calbiochem, Cat#401483), AquaMax 4000 plate washer (Molecular Devices), Luminometer, Wallac Victor2 1420 Multilabel Counter.
On day 1, 50K/well THP-1 cells were seeded and primed with IFNγ (50 ng/mL) in 384-well plates for about 18 hours in RPMI media with 10% FBS. On day 2, the compound was serially diluted in DMSO from 5 mM in 3-fold dilutions, and then diluted 1:125 in RPMI media with 10% FBS. 50 μL/well 2× compound was added to 50 μL/well THP-1 cells (with IFNγ primed) in duplicate in 384 well tissue culture plates. The cells were pre-incubated with compound for 1 hour at 37° C., 5% CO2 before addition of 10 μL/well 11×LPS to give a final concentration of 1 ug/mL LPS. Day 3, after stimulation for 18 hours at 37° C., 5% CO2, the assay plate was centrifuged and 70 μL/well supernatant was harvested. IL-23p19 protein in 70 μL/well of supernatant was measured by sandwich ELISA, and 25 μl/well Cell Titer Glo reagent was added to the remaining cells to measure compound toxicity.
Maxisorp immuno ELISA plates were pre-coated with 25 μL/well of anti-IL-23p19 capture antibody (2.5 ug/mL) in PBS overnight at room temperature. After washing with 1× PBST, the plates were blocked using 100 μL/well of 1% BSA in PBS for 2 hours at room temperature. The plates were washed three times with 1×PBST and 70 μL/well supernatant were added. The plates were incubated at room temperature for 2 hours with shaking and washed three times with 1×PBST. 25 μL/well of biotin labeled anti-IL-12(p40/p70) detection antibody (100 ng/mL) in PBS with 1% BSA was added and the plates were incubated at room temperature for 2 hours with shaking. After washing three times with 1×PBST, 25 μL/well of streptavidin-HRP (1:200) in PBS with 1% BSA was added and the plates were incubated at room temperature for 20 minutes with shaking. The plates were washed three times with 1× PBST and 25 μL/well of Super Signal ELISA Pico Chemiluminescent Substrate were added. The plates were read with a luminometer, and the chemiluminescence values were entered into Athena (Rigel) for curve fitting, EC50 calculation, and database storage.

IL-23 (p19/p40) = experiment: IL23-p19 ELISA, Dendritic, LPS (compound screening using DC cells); assay type: cell-based, Human
Experimental: Compound Screening Using DC Cells
Human PBMC cells (400 million) obtained from the vendor were transferred into a T-175 flask containing 15 ml RPMI media (10% FBS) and incubate for 2 hours at 37° C. After 2 hours, the media including floating cells was aspirated out carefully and 12 ml of fresh RPMI media (10% FBS) containing GMCSF (100 ng/ml) and IL4 (20 ng/ml) was added, and the flask was kept in a 37° C. incubator for 7 days.
After 3 days, fresh GMCSF (100 ng/ml) and IL4 (20 ng/ml) were added to the flask and the incubation continued. After 7 days, the fully differentiated cells were harvested by spinning down (1200 rpm/5 min) and aspirating the media. The cells were suspended in fresh RPMI media (10% FBS) containing 50 ng/ml IFNγ (1000 U/ml) and then plated (50K/well in 100 μl) onto a white clear bottom 96 well plate and left in a 37° C. incubator for 24 hours.
After 24 hours incubation, 100 μl of RPMI media was added containing 2× concentrated test compound per well to the above cell-culture media (final concentration becomes 1×) and the plates were pre-incubated for 1 hour at 37° C. before stimulating with LPS.
After 1 hour compound pre-incubation, 10 piper well of 20× concentrated LPS solution in RPMI media was added to give a final concentration of 1 μg/ml. The mixture was shaken and incubated the plates at 37° C. for an additional 18 hours.
155 μl of the supernatant was harvested from each well carefully (without the tip touching the bottom of the well) and to the remaining 50 μl/well of the cell culture plate was added 50 μl of Cell Titer Glo reagent. The mixture was incubated for 1-2 minutes on a shaker and the plate was read for luminescence intensity to determine the compound cytotoxicity. The cell culture supernatant collected above was used to carry out IL23 ELISA (65 μl -Supernatant) and IL10 ELISA (90 μl—Supernatant) as described below.
Human IL-23 (p19/p40) ELISA Protocol (e-Biosciences)
To 10.5 ml PBS add 50 μl of anti-IL23 (p19) was added capture antibody (2.5 μg/ml). The mixture was mixed well and 100 μl of the coating solution was added to each well of the 96 well white plates from Pierce. The wells were covered and incubated overnight at 4° C.
The anti-IL23 (p19)-antibody-coated plates were washed 2× using TBST (use plate washer) and blocked using 200 μl of 0.5% Casein for 1.5-2 hours at room temperature with shaking.
The plates were washed 2× using TBST and the supernatant was transferred (65 μl/well) to the above pre-blocked/IL23(p19)-antibody-coated 96 well plate, and incubated at room temperature for 1.5 hours with shaking.
The plates were washed 4× using TBST (plate washer) and 100 μl/well detection antibody solution prepared from 2 μl of biotin labeled anti-IL-12 (p40/p70) antibody in 11 ml 1% BSA/PBS solution (1-5000 dilution) was added. The plates were incubated for 1 hour with shaking at Room temperature.
Again, the plates were washed 4× with TBST and 100 μl of HRP labeled Streptavidin (R&D Systems) solution (10 μl/10 ml 1% BSA solution) was added, and the plates were incubated at room temperature for another 45 minutes with shaking.
After 45 minutes, the plates were washed with TBST 4× and 100 ul/well Super Signal ELISA Pico Chemiluminescent Substrate from Pierce (3.5 ml A+3.5 ml B+3.5 ml MQ water) was added. The plates were shaken for 1-2 minutes then read on a plate reader.

[1] = THP-1 cells, IFNγ primed, LPS 1 ug/mL, 18 hours, 10 pt, read-out: IL23-p19 ELISA, THP1-IFNy, LPS, 10 pt EC50
[2] = Homo sapiens, THP-1, 18 h, THP-1 cells, IFNγ primed, LPS 1 ug/mL, 18 hours, 10 pt, read-out: IL23-p19 ELISA, THP1-IFNy, LPS, 10 pt EC50
[3] = Homo sapiens, 18 h, PBMC-derived DC cells, IFNγ primed, LPS 1 μg/ml, 18 hours, 10 pt, read-out: IL23-p19 ELISA, Dendritic, LPS, 10 pt, EC50

Compound: COCCn1cc(NC(=O)c2ccc(-c3cnn(COP(=O)(OC(C)(C)C)OC(C)(C)C)c3)o2)c(-c2ccccn2)n1 [Compound I-10, di-tert-butyl ((4-(5-((1-(2-methoxyethyl)-3-(pyridin-2-yl)-1H-pyrazol-4-yl)carbamoyl)furan-2-yl)-1H-pyrazol-1-yl)methyl) phosphate]
- EC50 (IL-23p19; [2]): 21.9 µM
- EC50 (IL-23 (p19/p40); [3]): 3.27 µM

Compound: COCCn1cc(NC(=O)c2ccc(-c3cnn(COP(=O)(O)OC(C)(C)C)c3)o2)c(-c2ccccn2)n1 [Compound I-11, tert-butyl ((4-(5-((1-(2-methoxyethyl)-3-(pyridin-2-yl)-1H-pyrazol-4-yl)carbamoyl)furan-2-yl)-1H-pyrazol-1-yl)methyl) hydrogen phosphate]
- EC50 (IL-23p19; [2]): 4.84 µM
- EC50 (IL-23 (p19/p40); [3]): 5.19 µM

Compound: COCCn1cc(NC(=O)c2ccc(-c3cnn(COP(=O)(O)O)c3)o2)c(-c2ccccn2)n1 [Compound I-12, (4-(5-((1-(2-methoxyethyl)-3-(pyridin-2-yl)-1H-pyrazol-4-yl)carbamoyl)furan-2-yl)-1H-pyrazol-1-yl)methyl dihydrogen phosphate]
- EC50 (IL-23p19; [2]): 0.593 µM
- EC50 (IL-23 (p19/p40); [3]): 1.05 µM

Compound: COCCn1cc(NC(=O)c2ccc(-c3c[nH]nc3C(F)(F)F)o2)c(-c2ccccn2)n1 [Compound I-13, N-(1-(2-methoxyethyl)-3-(pyridin-2-yl)-1H-pyrazol-4-yl)-5-(3-(trifluoromethyl)-1H-pyrazol-4-yl)furan-2-carboxamide]
- EC50 (IL-23p19; [2]): 136 µM
- EC50 (IL-23 (p19/p40); [3]): 11 µM

Compound: COCCn1cc(NC(=O)c2ccc(-c3cnn(COP(=O)(O)O)c3)o2)c(-c2ccccn2)n1 [Compound I-14, sodium (4-(5-((1-(2-methoxyethyl)-3-(pyridin-2-yl)-1H-pyrazol-4-yl)carbamoyl)furan-2-yl)-1H-pyrazol-1-yl)methyl phosphate]
- EC50 (IL-23p19; Homo sapiens, THP-1, 18 h, read-out: IL23-p19 ELISA, THP1-IFNy, LPS, 10 pt EC50 (μM)): 1.25 µM
- EC50 (IL-23 (p19/p40); Homo sapiens, 18 h, read-out: IL23-p19 ELISA, Dendritic, LPS, 10 pt, EC50 (μM)): 0.571 µM

Compound: O=C(Nc1cn(CCO)nc1-c1ncccn1)c1ccc(-c2cn[nH]c2)o1 [Compound I-15, N-(1-(2-hydroxyethyl)-3-(pyrimidin-2-yl)-1H-pyrazol-4-yl)-5-(1H-pyrazol-4-yl)furan-2-carboxamide]
- EC50 (IL-23p19; [2]): 2.23 µM
- EC50 (IL-23 (p19/p40); [3]): 2.2 µM

Compound: COCCn1cc(NC(=O)c2ccc(-c3cnn(C(=O)OC(C)OC(=O)C(C)C)c3)o2)c(-c2ccccn2)n1 (stereo not drawn) [Compound I-19, 1-(isobutyryloxy)ethyl 4-(5-((1-(2-methoxyethyl)-3-(pyridin-2-yl)-1H-pyrazol-4-yl)carbamoyl)furan-2-yl)-1H-pyrazole-1-carboxylate]
- EC50 (IL-23p19; [2]): 0.3 µM
- EC50 (IL-23 (p19/p40); [3]): 0.337 µM

Compound: COCCn1cc(NC(=O)c2ccc(-c3cnn(C(=O)[C@@H](NC(=O)OC(C)(C)C)C(C)C)c3)o2)c(-c2ccccn2)n1 [Compound I-20, tert-butyl (S)-(1-(4-(5-((1-(2-methoxyethyl)-3-(pyridin-2-yl)-1H-pyrazol-4-yl)carbamoyl)furan-2-yl)-1H-pyrazol-1-yl)-3-methyl-1-oxobutan-2-yl)carbamate]
- EC50 (IL-23p19; [2]): 0.167 µM
- EC50 (IL-23 (p19/p40); [3]): 0.195 µM

Second part, the compound after the results:

- EC50 (IL-23p19; [1]): 0.281 µM
- EC50 (IL-23 (p19/p40); PBMC-derived DC cells, IFNγ primed, LPS 1 μg/ml, 18 hours, 10 pt, read-out: IL23-p19 ELISA, Dendritic, LPS, 10 pt, EC50): 0.309 µM
Compound: COCCn1cc(NC(=O)c2ccc(-c3c[nH]nc3C)o2)c(-c2ccccn2)n1 [Compound I-9, N-(1-(2-methoxyethyl)-3-(pyridin-2-yl)-1H-pyrazol-4-yl)-5-(3-methyl-1H-pyrazol-4-yl)furan-2-carboxamide]

- EC50 (IL-23p19; [1]): 0.125 µM
- EC50 (IL-23 (p19/p40); [3]): 0.403 µM
Compound: COCCOCCn1cc(NC(=O)c2ccc(-c3cn[nH]c3)o2)c(-c2ccccn2)n1 [Compound I-16, N-(1-(2-(2-methoxyethoxy)ethyl)-3-(pyridin-2-yl)-1H-pyrazol-4-yl)-5-(1H-pyrazol-4-yl)furan-2-carboxamide]

- EC50 (IL-23p19; THP-1 cells, IFNγ primed, LPS 1 ug/mL, 18 hours, 10 pt, hydrochloride salt, read-out: IL23-p19 ELISA, THP1-IFNy, LPS, 10 pt EC50): 0.285 µM
- EC50 (IL-23 (p19/p40); PBMC-derived DC cells, IFNγ primed, LPS 1 μg/ml, 18 hours, 10 pt, hydrochloride salt, read-out: IL23-p19 ELISA, Dendritic, LPS, 10 pt, EC50): 0.424 µM
Compound: COCCOCCn1cc(NC(=O)c2ccc(-c3cn[nH]c3)o2)c(-c2ccccn2)n1 [Compound I-17, N-(1-(2-(2-methoxyethoxy)ethyl)-3-(pyridin-2-yl)-1H-pyrazol-4-yl)-5-(1H-pyrazol-4-yl)furan-2-carboxamide hydrochloride salt]

- EC50 (IL-23p19; [2]): 0.514 µM
- EC50 (IL-23 (p19/p40); [3]): 1.2 µM
Compound: COCCOCCn1cc(NC(=O)c2ccc(-c3c[nH]nc3C)o2)c(-c2ccccn2)n1 [Compound I-18, N-(1-(2-(2-methoxyethoxy)ethyl)-3-(pyridin-2-yl)-1H-pyrazol-4-yl)-5-(3-methyl-1H-pyrazol-4-yl)furan-2-carboxamide]
